Assay [1] deals with A549 cells. Nature of the assay: Confocal imaging of LAT9991F-PAL binding and LANCL1 co-localization, with siRNA knockdown and competitors, in A549 cells. It counts as cell-based. The following applies: for Competition of LAT9991F-PAL binding by excess competitor: competitor 25 μM. On the procedure:
(§1) A photoactivatable analog of LAT8881 (LAT9991F (SEQ ID NO:13)-PAL), was used to conduct the experiments. A549 or NCI-H358 cells were treated with LAT9991F-PAL at 2.5 μM during 30 minutes. Fluorescent signal was recorded after that LAT9991F-PAL was immobilized on its target(s) site by UV-crosslinking and the LAT9991F-PAL-target complexes were labeled with the green-fluorescent Alexa Fluor 488 alkyne dye by click-chemistry. Control cells were treated with the vehicle, dimethyl sulfoxide (DMSO), and with LAT9991F-PAL in combination with a large excess of the parent drug LAT8881 or other competitors, GSH, NSC61610 or ABA to evaluate, respectively, the non-specific fluorescent background and the specificity of the staining. For colocalization experiments, subsequently, immunofluorescence staining with an anti-LANCL1 or LANCL2 antibodies and an Alexa 568 (red) conjugated secondary antibody was performed. Images stacks of cells labeled with probes were collected and evaluated for the degree of colocalization of LAT9991F-PAL-target complexes and LANCL1 or LANCL2 using either the Measure Colocalization plugin in Metamorph or the JACoP plugin in ImageJ).
(§2) A549 or NCI-H358 cells (ATCC CCL-185 and ATCC CRL-5807, respectively) were cultured in appropriate medium containing 10% heat-inactivated FBS (Dutscher, #SV30160-036), 1% penicillin/streptomycin (Gibco, #15140-122) and maintained in a humidified 37° C. incubator with 5% CO2.
(§3) LAT9991F-PAL was dissolved in DMSO to make a 10 mM stock solution. Intermediate solutions at 25 μM and 2.5 μM were made in the culture medium from the 10 mM stock solutions of LAT8881 and LAT9991F-PAL, respectively. A two-fold dilution into PBS of each intermediate solution was used for cell treatment. A stock solution at 10 mM was prepared for the other competitors as GSH, NSC61610 and ABA. A final concentration at 25 μM was used for the assay.
(§4) A549 or NCI-H358 cells were seeded onto ibidiTreat Polymer Coverslips (Ibidi, #80826) at 2.5×10^5 cells/cm^2 in 200 μl of complete medium. After 24 hours, the medium was removed and cells were washed with PBS (Gibco, #10010049) and then pre-treated with the Taxol at 1 μM for 3 hours or with H2O2 25 μM for 2 hours. Cells were washed twice with PBS. Induced stress cells or control cells were then exposed to LAT9991F-PAL (2.5 μM) in PBS for 30 minutes, in the presence or absence of LAT8881 (25 μM), or the other compounds used as a competitor, and pre-incubated 10 minutes. After treatment, cells were washed with cold PBS and UV-irradiated (365 nm) in PBS for 20 min. After fixation with 4% paraformaldehyde and permeabilization (0.5% Triton/PBS) (Image-iT™ Fixation/Permeabilization Kit, ThermoFisher, #R37602), the bioorthogonal reaction with Alexa Fluor 488 Alkyne (1 μM) (ThermoFisher, #A10267) was performed at 25° C. using the Click-iT™ Cell Reaction Buffer Kit (ThermoFisher, #C10269) according to the manufacturer protocol. After click reaction, cells were washed twice with PBS, blocked with 3% BSA in PBS for 1 hour and stained with Hoechst 33342 dye (ThermoFisher, #H1399).
(§5) For colocalization experiments, cells were further incubated overnight at 4° C. with a mouse anti-LanCL1 antibody (Invitrogen, PAS-57-107) (dilution 1:1000) or LanCL2 (Atlas Antibodies HPA019711) (dilution 1:1000) in 3% BSA in PBS, washed twice with PBS, and then incubated respectively with a goat anti-mouse […] (Molecular Probes, #A21467) (dilution 1:800) for 1 h in 3% BSA in PBS. After three further washing steps with PBS, cells were embedded in Ibidi Mounting Medium (ibidi, #50001). The specimens were kept at 4° C. in the dark until analysis.
Images were acquired on an Axiovert200M (Zeiss) microscope using a CSU-W1 Yokogawa confocal unit. This microscope is equipped with a plan Apochromat X40 dry objective numerical aperture (NA) 0.95 and a Neofluar X100 oil immersion objective NA 1.45. Images were capture with an EMCCD camera (Prior, ProEM 1024×1024).

The subject of assay [2] is NCI-H358 cells. Nature of the assay: Confocal imaging of LAT9991F-PAL binding and LANCL1 co-localization, with siRNA knockdown and competitors, in NCI-H358 cells. The following applies: for Competition of LAT9991F-PAL binding by excess competitor: competitor 25 μM. The format is cell-based. On the procedure:
as §1, §2, §3
ibidiTreat Polymer Coverslips (Ibidi, #80826) were coated with serum during 1 hour at 37° C., followed by Laminin (100 μg\ml) (incubation for 1 hour at 37° C.) for NCI-H358 cells.
as §4, §5
Images were acquired on an Axiovert200M (Zeiss) microscope using a CSU-W1 Yokogawa confocal unit.

Assay [3] addresses T1, human recombinant LANCL1 (Homo sapiens, UniProt O43813).
T1 construct: purchased ABCAM ab181923; host or cells: E. coli
Nature of the assay: In-gel fluorescence: photolabelling of recombinant LANCL1 with PAL probes, with or without excess competitor. It counts as binding. The following applies: for Inhibition of LAT9991-PAL binding to recombinant LANCL1 by excess competitor: probe LAT9991-PAL, excess unlabelled competitor. As for the experimental part: The in-gel fluorescence protocol can be briefly described as follows:
1. LANCL1 Labelling, Assay on 96 Well Plate, Volume of the Reaction 40 μl in PBS
3 μg/well of human recombinant LANCL1 (ABCAM catalog no. ab181923, 1 mg/ml; expressed in E. Coli and incorporating an N-terminal 23 amino acid hexaHis tag; UniProtKB/Swiss-Prot Accession no: O43813);
• Vehicle DMSO • ±LAT8881 (a cyclic peptide fragment of human growth hormone; SEQ ID NO:1) • SEQ ID NO:1) as competitor @ 25, 50, 100 or 200 μM, pre-incubation 10 min, 4 μl of a stock solution 10-fold concentrated • ±LAT9991-PAL, LAT7771-PAL or LAT9993-PAL probes @ 1 μM, incubation 30 min at room temperature on a plate agitator (protected from light), 4 μl of a stock solution @10 μM
• Irradiation @ 365 nm 20 min (4° C., on a support containing ice) Transfer 40 μl in a clean Eppendorf tube
• Reduction: DTT 10 mM, 30 min @ 56° C. • Alkylation: Iodoacetamide 30 mM, 45 min @ RT Click-iT AzideTamra of 60 μL samples
• Acetone Precipitation −20° C. ON • Dry pellet resuspended in 30 μL 1% SDS in 50 mM Tris-HCl pH 7.5 • Photolabeled LANCL1 was tagged with tetramethylrhodamine (TAMRA) azide @100 μM TAMRA azide by copper click chemistry using the Click-iT Protein Reaction Buffer Kit (ThermoFisher Scientific) during 30 minutes • Precipitation using the chloroform-methanol method, pellet was air-dried for 10 min at room temperature, resuspended in 30 μL SDS loading buffer (Bio Rad's XT Sample Buffer containing 2.5% v/v 2-mercaptoethanol) and heated (60° C., 30 min)
• SDS-PAGE (4-15% Criterion™ TGX Stain-Free™ Protein Gel, Bio Rad) • Analyzed by in-gel fluorescence scanning using a ChemiDoc™ MP Imaging System (Bio Rad) with a green LED light as an excitation source and a BP600/20 nm emission filter

Assay [4] has as its system tissue homogenates of nerve from neuropathic animals. Description: PAL cross-linking to nerve tissue homogenates and gel separation. It counts as binding. From the text:
Using a ligand driven approach, the present inventors utilized the photo-activatable cross-linking PAL from Evotec A.G. (Photo-Activated Labelling) technology that derivatizes the active cyclic peptides to allow UV-induced cross-linking to binding targets (described herein as peptide/SEQ ID NO:X-PAL). This allows subsequent detection in cells, gels of tissue isolates or in pull-down of the peptide/target complex for sequencing by mass spectroscopy (PALMS).
LAT9991-PAL was cross-linked to tissue homogenates of nerve from neuropathic animals.

Bridges are numbered along the chain shown (N, C = ends). Where no end group is shown, it is not given here.

T1 sequence (O43813 with tags, fused parts or gaps): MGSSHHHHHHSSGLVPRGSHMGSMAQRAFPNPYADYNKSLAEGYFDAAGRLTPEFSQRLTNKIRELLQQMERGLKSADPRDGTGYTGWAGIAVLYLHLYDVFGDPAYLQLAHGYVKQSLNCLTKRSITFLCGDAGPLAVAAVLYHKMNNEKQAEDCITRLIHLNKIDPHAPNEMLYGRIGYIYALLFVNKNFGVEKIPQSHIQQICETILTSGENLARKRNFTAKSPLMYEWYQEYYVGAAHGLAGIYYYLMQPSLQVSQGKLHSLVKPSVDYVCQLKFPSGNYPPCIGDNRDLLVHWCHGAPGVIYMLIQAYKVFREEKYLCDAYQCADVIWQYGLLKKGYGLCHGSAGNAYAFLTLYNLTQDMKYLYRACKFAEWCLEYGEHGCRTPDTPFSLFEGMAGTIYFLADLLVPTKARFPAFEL

For the compound `O=C(Nc1cccc(-c2nc3ccccc3[nH]2)c1)c1ccc(C(=O)Nc2cccc(-c3nc4ccccc4[nH]3)c2)cc1` [NSC61610, reference compound], the “Competition of LAT9991F-PAL binding by excess competitor” value (shortened to “Competition of LAT9991F-PAL binding”) in assay [1] (SiLANCL1 A549 cells) and in assay [2] (SiLANCL1 NCI-H358 cells) was “strongly competed off” each time.

`N[C@@H](CCC(=O)N[C@@H](CS)C(=O)NCC(=O)O)C(=O)O` [glutathione, reference compound]: the “Competition of LAT9991F-PAL binding” value in assay [1] (SiLANCL1 A549 cells) and in assay [2] (SiLANCL1 NCI-H358 cells) was “partially competed off” throughout.

In the case of CRIIHNNNC [LAT7771], the “Competition of LAT9991F-PAL binding” value in assay [1] (SiLANCL1 A549 cells) and in assay [2] (SiLANCL1 NCI-H358 cells) was “partially competed off” throughout. The “Inhibition of LAT9991-PAL binding to recombinant LANCL1 by excess competitor” value in assay [3] is recorded as “inhibited”.

Take “LAT9991F-PAL: A photoactivatable analog of LAT8881 (LAT9991F (SEQ ID NO:13)-PAL) (CRSVEGSCGF; disulfide 1-8 (inferred); also: PAL cross-linking group, site not given here)”: the “Co-localization of LANCL1 and probe binding” value in assay [1] (A549 cells, confocal microscopy, probe 2.5 μM) is “co-localization”; in assay [2] (NCI-H358 cells, confocal microscopy, probe 2.5 μM), “co-localization”. Further, the “Co-localization of LANCL1 and probe after siRNA knockdown of LANCL1” value in assay [1] (SiLANCL1 A549 cells) and in assay [2] (SiLANCL1 NCI-H358 cells) was “lost” throughout. Also, the “Level of probe binding in siLANCL1 cells following induced oxidative stress” value in assay [1] (siLANCL1 A549 cells, H2O2 25 μM 2 hours or Taxol 1 μM 3 hours, vs SiControl) was “less intense as compared to control cells”. For the same compound, the “Level of probe binding in siLANCL1 cells following stress” value in assay [2] (siLANCL1 NCI-H358 cells, vs control cells) is recorded as “less intense as compared to control cells”.

With “LAT9993S-PAL: LAT9993S (SEQ ID NO:44) derivatized with the PAL photo-activatable cross-linking group (SCRSRPVESSCS; disulfide 2-11 (inferred); also: ['PAL photo-activatable cross-linking group, structure and site not given here'])”, the “Cross-linking of PAL probe to tissue homogenates of nerve from neuropathic animals” value in assay [4] is listed as “shown to cross-link”. In assay [4] (PAL probe cross-linked to nerve homogenates), the “Molecular weight ranges of targets stained after gel separation” value is “˜12-15 kD, ˜37 kD and ˜50 kD”. In addition, the “Binding of PAL probe to recombinant LANCL1” value in assay [3] (in-gel fluorescence after UV (365 nm) cross-linking) is reported as “bound to recombinant LANCL1”.

In the case of SCRSRPVESSCS [LAT9993S], the “Competition of LAT9991F-PAL binding” value in assay [1] (SiLANCL1 A549 cells) and in assay [2] (SiLANCL1 NCI-H358 cells) was “partially competed off” throughout. Also, the “Inhibition of LAT9991-PAL binding to recombinant LANCL1 by excess competitor” value in assay [3] is recorded as “inhibited”.

The values above are taken from patent US20230064978A1, “CYCLIC PEPTIDE RECEPTOR LANTHIONINE SYNTHETASE C-LIKE PROTEIN (LANCL) AND USES THEREOF” (LATERAL IP PTY LTD, priority 2019, published 2023).
